Test results as given in PubChem BioAssay AID2060501 (Molecular Pharmacology Branch, DTP, NCI, 2025).
pIC50: −log10 of the molar value.

Test system: 282377-053-R-J1-PDC complex spheroids, viability
Assay: Anticancer human tumor 282377-053-R-J1-PDC patient-derived colon adenocarcinoma cell line growth inhibition [GQUAD]
Conditions: for pIC50: curve of first compound; for viability, T/C: stronger effect = lower value
Text: DNA G-quadruplex Stabilizer Agents in Combinations in Complex Spheroids
A high-throughput screen of multi-cell type tumor spheroids was designed to identify active combinations of DNA G-quadruplex stabilizer agents and targeted small molecules. Complex spheroids include a stromal component modeled by human endothelial cells (HUVEC) and fibroblasts modeled by human mesenchymal stem cells (MSCs). The concentration ranges selected for each drug and investigational agent were based upon clinically achievable concentrations if the clinical Cmax of the agent was known.
Compounds. The drugs and investigational agents: pidnarulex (CX-5461; NSC782164), APTO-253 (NSC789042), BRACO-19 (NSC847499), peposertib (NSC802822), ceralasertib (NSC780249), elimusertib (NSC800525), camonsertib (NSC841442), AZD-1390 (NSC803789), olaparib (NSC753686), talazoparib (NSC767125), ART-558 (NSC835418), sotorasib (NSC818433), MRTX-1133 (NSC836407), SN-38 (NSC673596), topotecan (NSC609699), etoposide (NSC141540), doxorubicin (NSC123127), gemcitabine (NSC613327), 5-fluorouracil (NSC19893), paclitaxel (NSC125973), vemurafenib (NSC761431), panobinostat (NSC761190), R-306465 (JNJ-16241199; NSC773264), adavosertib (NSC754352), TP-3654 (NSC805149), carboplatin (NSC241240), KSQ-4279 (NSC840948), and staurosporine (NSC755774) were obtained from the National Cancer Institute (NCI) Developmental Therapeutics Program Chemical Repository (34). The FDA-approved anticancer drug set is available from the NCI Developmental Therapeutics Program. […] The stock solutions were prepared in dimethyl sulfoxide (DMSO, Sigma-Aldrich, St. Louis, MO, cat. D2650) at 800-fold the tested concentration and stored at -70 degrees C prior to their use. All drugs and investigational agents were tested over a range starting from a high concentration at or near the clinical Cmax and decreasing in half-log increments. If the clinical Cmax for an agent had not been determined, the highest concentration tested was 10 microM.
2.3 Cell Culture. All cells were maintained in an incubator at 37 degrees C and 5% CO2 with 95% humidity. The PDC lines were cultured according to standard operating procedures established by the NCI PDMR. All PDCs were thawed and cultured in Matrigel-coated flasks prepared with a working solution of 1X Ham's F-12 nutrient mix, without supplementation (Invitrogen, cat. 11765054), 100 U/mL penicillin-streptomycin (Invitrogen, cat. 15140122), and 2.5% Matrigel (Corning Inc., cat. 354248) for the first three passages. The 857933-349-R-J2-PDC line was cultured in 6C/Colon 1B media, which includes advanced DMEM/F-12 (Thermo Fisher Scientific, cat. 12634028), 10 mM HEPES (Thermo Fisher Scientific, cat. 15630080), 1X GlutaMAX supplement (Thermo Fisher Scientific, cat. 35050061), 0.1 mg/mL primocin (InvivoGen, cat. ant-pm-2), 10% defined fetal bovine serum, heat inactivated (HyClone Laboratories Inc., cat. SH30070.03HI), 50% L-WRN conditioned media (ATCC, cat. CRL-3276), 1.25 mM N-Acetyl-L-cysteine (Sigma-Aldrich, cat. A9165), 10 mM nicotinamide (Sigma-Aldrich, cat. N0636), 1X B-27 supplement (Thermo Fisher Scientific, cat. 17504044), 1X N-2 supplement (Thermo Fisher Scientific, cat. 17502048), 10 microM Y-27632 dihydrochloride (Tocris Bioscience, cat. 1254), and 50 ng/mL human EGF recombinant protein (Thermo Fisher Scientific, cat. PHG0311). The 485176-168-R4-J1-PDC line was cultured in Panc media, which includes all 6C/Colon 1B media components plus 100 ng/mL human FGF-10 (Thermo Fisher Scientific, cat. 100-26), 500 nM SB-431542 (Selleckchem, cat. S1067), and gastrin (Tocris, cat. 3006).
[…]

[1] = second compound 0.0316 µM, first compound 0.0316 µM
[2] = second compound 0.0316 µM, first compound 0.316 µM
[3] = second compound 0.1 µM, first compound 0.0316 µM
[4] = second compound 0.1 µM, first compound 0.316 µM
[5] = second compound 0.316 µM, first compound 0.0316 µM
[6] = second compound 0.316 µM, first compound 0.316 µM
[7] = second compound 1 µM, first compound 0.0316 µM
[8] = second compound 1 µM, first compound 0.316 µM
[9] = second compound 3.16 µM, first compound 0.0316 µM
[10] = second compound 3.16 µM, first compound 0.316 µM
[11] = second compound 10 µM, first compound 0.0316 µM
[12] = second compound 10 µM, first compound 0.316 µM
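Also: spheroids exposed to compounds for 7 days before readout.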
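For viability, T/C in this document: percent of vehicle DMSO control viability with 100% = untreated-like growth.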

Compound `CCc1c2c(nc3ccc(O)cc13)-c1cc3c(c(=O)n1C2)COC(=O)[C@]3(O)CC` + CN(C)c1ccc(Nc2c3ccc(NC(=O)CCN4CCCC4)cc3nc3cc(NC(=O)CCN4CCCC4)ccc23)cc1 has a pIC50 (second compound 0.0316 µM) of 6.77, a pIC50 (second compound 0.1 µM) of 6.79 and a pIC50 (second compound 0.316 µM) of 6.83. The pIC50 (second compound 1 µM) was 6.93, the pIC50 (second compound 3.16 µM) was 6.68 and the pIC50 (second compound 10 µM) was 6.66. It also gave a viability, T/C (second compound 0.0316 µM, first compound 0.000999 µM) of 102%, a viability, T/C (second compound 0.0316 µM, first compound 0.00316 µM) of 104% and a viability, T/C (second compound 0.0316 µM, first compound 0.00999 µM) of 85.5%. For the same compound, the viability, T/C [1] was 69.5%, the viability, T/C (second compound 0.0316 µM, first compound 0.0999 µM) was 61.8% and the viability, T/C [2] was 40%. For the same compound, the viability, T/C (second compound 0.1 µM, first compound 0.000999 µM) was 104%, the viability, T/C (second compound 0.1 µM, first compound 0.00316 µM) was 90.9% and the viability, T/C (second compound 0.1 µM, first compound 0.00999 µM) was 92.1%. It also gave a viability, T/C [3] of 60.7%, a viability, T/C (second compound 0.1 µM, first compound 0.0999 µM) of 61.2% and a viability, T/C [4] of 40.9%. The viability, T/C (second compound 0.316 µM, first compound 0.000999 µM) was 110%, the viability, T/C (second compound 0.316 µM, first compound 0.00316 µM) was 107% and the viability, T/C (second compound 0.316 µM, first compound 0.00999 µM) was 71.6%. For the same compound, the viability, T/C [5] was 70.9%, the viability, T/C (second compound 0.316 µM, first compound 0.0999 µM) was 53.8% and the viability, T/C [6] was 43%. The viability, T/C (second compound 1 µM, first compound 0.000999 µM) was 95.2%, the viability, T/C (second compound 1 µM, first compound 0.00316 µM) was 97.6% and the viability, T/C (second compound 1 µM, first compound 0.00999 µM) was 92.4%. For the same compound, the viability, T/C [7] was 76.8%, the viability, T/C (second compound 1 µM, first compound 0.0999 µM) was 51.2% and the viability, T/C [8] was 42.5%. The viability, T/C (second compound 3.16 µM, first compound 0.000999 µM) was 103%, the viability, T/C (second compound 3.16 µM, first compound 0.00316 µM) was 105% and the viability, T/C (second compound 3.16 µM, first compound 0.00999 µM) was 91.6%. It also gave a viability, T/C [9] of 68.7%, a viability, T/C (second compound 3.16 µM, first compound 0.0999 µM) of 63.1% and a viability, T/C [10] of 43.7%. It also gave a viability, T/C (second compound 10 µM, first compound 0.000999 µM) of 108%, a viability, T/C (second compound 10 µM, first compound 0.00316 µM) of 102% and a viability, T/C (second compound 10 µM, first compound 0.00999 µM) of 99.5%. The viability, T/C [11] was 86.2%, the viability, T/C (second compound 10 µM, first compound 0.0999 µM) was 63.1% and the viability, T/C [12] was 43.6%.

`COc1cccc2c1C(=O)c1c(O)c3c(c(O)c1C2=O)CC(O)(C(=O)CO)CC3OC1CC(N)C(O)C(C)O1` (centres undefined) + CN(C)c1ccc(Nc2c3ccc(NC(=O)CCN4CCCC4)cc3nc3cc(NC(=O)CCN4CCCC4)ccc23)cc1 gave a pIC50 (second compound 0.0316 µM) of 5.82, a pIC50 (second compound 0.1 µM) of 5.72 and a pIC50 (second compound 0.316 µM) of 5.71. It also gave a pIC50 (second compound 1 µM) of 5.65, a pIC50 (second compound 3.16 µM) of 5.69 and a pIC50 (second compound 10 µM) of 5.59. For the same compound, the viability, T/C [1] was 114%, the viability, T/C (second compound 0.0316 µM, first compound 0.1 µM) was 99% and the viability, T/C [2] was 92.8%. It also gave a viability, T/C (second compound 0.0316 µM, first compound 1 µM) of 62.6%, a viability, T/C (second compound 0.0316 µM, first compound 3.16 µM) of 27.7% and a viability, T/C (second compound 0.0316 µM, first compound 10 µM) of 1.26%. For the same compound, the viability, T/C [3] was 104%, the viability, T/C (second compound 0.1 µM, first compound 0.1 µM) was 96.2% and the viability, T/C [4] was 109%. For the same compound, the viability, T/C (second compound 0.1 µM, first compound 1 µM) was 71.6%, the viability, T/C (second compound 0.1 µM, first compound 3.16 µM) was 31.1% and the viability, T/C (second compound 0.1 µM, first compound 10 µM) was 1.8%. For the same compound, the viability, T/C [5] was 89.4%, the viability, T/C (second compound 0.316 µM, first compound 0.1 µM) was 110% and the viability, T/C [6] was 98.6%. It also gave a viability, T/C (second compound 0.316 µM, first compound 1 µM) of 73.7%, a viability, T/C (second compound 0.316 µM, first compound 3.16 µM) of 32.4% and a viability, T/C (second compound 0.316 µM, first compound 10 µM) of 2.16%. The viability, T/C [7] was 85%, the viability, T/C (second compound 1 µM, first compound 0.1 µM) was 94.2% and the viability, T/C [8] was 106%. It also gave a viability, T/C (second compound 1 µM, first compound 1 µM) of 73.8%, a viability, T/C (second compound 1 µM, first compound 3.16 µM) of 39.5% and a viability, T/C (second compound 1 µM, first compound 10 µM) of 1.89%. The viability, T/C [9] was 97.8%, the viability, T/C (second compound 3.16 µM, first compound 0.1 µM) was 88.1% and the viability, T/C [10] was 96.5%. For the same compound, the viability, T/C (second compound 3.16 µM, first compound 1 µM) was 74.2%, the viability, T/C (second compound 3.16 µM, first compound 3.16 µM) was 35.2% and the viability, T/C (second compound 3.16 µM, first compound 10 µM) was 2.76%. For the same compound, the viability, T/C [11] was 97%, the viability, T/C (second compound 10 µM, first compound 0.1 µM) was 100% and the viability, T/C [12] was 105%. For the same compound, the viability, T/C (second compound 10 µM, first compound 1 µM) was 83.6%, the viability, T/C (second compound 10 µM, first compound 3.16 µM) was 42.9% and the viability, T/C (second compound 10 µM, first compound 10 µM) was 4.44%.
